Results on 17 molecules are retold here after patent publication US8524917B2, “6-substituted indole-3-carboxylic acid amide compounds having sphingosine-1-phosphate (S1P) receptor antagonist biological activity” (Allergan, Inc., priority 2007, dated 2013).

The target of experiment [1] is human S1P3 receptor (Homo sapiens (Human), UniProt Q99500). As to the kind of experiment: Activation or block of activation of human S1P3 receptor, Ca+2 FLIPR assay. It is filed as cell-based. To be noted: for IC50: read-out: S1P3 IC50. An outline of the steps:
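T24 cells stably expressing human S1P3, grown in charcoal-treated FBS, dye-loaded and read on FLIPR for calcium after ligand addition in HBSS/20 mM HEPES (1 s readings for 75 s, then every 10 s for 2.5 min). Agonist or antagonist mode; S1P positive control in 4 mg/ml fatty-acid-free BSA. IC50 by Levenberg–Marquardt regression.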

Experiment [2] relates to perfused porcine eyes. To be noted: by altering paracellular permeability, IOVS 45, 2263, 2004; cited from earlier work.
[3] abbreviates: T24 cells stably expressing the human S1P3 receptor, FLIPR Ca+2 response, 0.61 nM to 10,000 nM.
The mark [4] stands for this setting: T24 cells stably expressing the human S1P3 receptor, value in brackets.

Like-named read-outs stand apart in the source and are kept apart here. A value given as a limit tells only on which side of the number the result lay.

human S1P3 receptor, sequence (Q99500 whole entry): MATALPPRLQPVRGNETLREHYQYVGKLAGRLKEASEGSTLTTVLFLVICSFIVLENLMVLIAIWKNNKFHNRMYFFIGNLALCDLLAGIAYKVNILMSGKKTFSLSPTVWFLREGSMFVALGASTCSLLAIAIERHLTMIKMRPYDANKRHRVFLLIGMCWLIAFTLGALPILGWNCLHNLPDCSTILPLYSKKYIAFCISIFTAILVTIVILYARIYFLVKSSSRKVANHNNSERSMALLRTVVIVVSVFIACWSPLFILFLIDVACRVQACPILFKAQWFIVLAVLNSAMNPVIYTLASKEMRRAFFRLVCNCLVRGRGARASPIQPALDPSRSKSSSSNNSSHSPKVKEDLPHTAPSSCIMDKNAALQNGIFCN

In the case of `CC(C)c1c(C(=O)NCc2cc(F)cc(F)c2)c2ccc(NC3CCC3)cc2n1Cc1ccccc1` [Compound 194, 1-Benzyl-6-(cyclobutylamino)-N-(3,5-difluorobenzyl)-2-isopropyl-1H-indole-3-carboxamide], in experiment [1], the “S1P3 (% inh)” value is 20 nM (100) % and the IC50 amounted to 20 nM.
With `CC(C)c1c(C(=O)NCc2ccc(F)cc2)c2ccc(NC3CCC3)cc2n1Cc1ccccc1` [Compound 195, 1-Benzyl-6-(cyclobutylamino)-N-(4-fluorobenzyl)-2-isopropyl-1H-indole-3-carboxamide], in experiment [1] (setting [3]), the IC50 turned out to be 51 nM. Moreover, the “S1P3 (% inh)” value in experiment [1] (setting [4]) turned out to be 99%.
With `CC(C)c1c(C(=O)NCc2ccc(F)c(F)c2)c2ccc(NC3CCC3)cc2n1Cc1ccccn1` [Compound 197, 6-(Cyclobutylamino)-N-(3,4-difluorobenzyl)-2-isopropyl-1-(pyridin-2-ylmethyl)-1H-indole-3-carboxamide], the IC50 in experiment [1] (setting [3]) came out at 67 nM. In experiment [1] (setting [4]), the “S1P3 (% inh)” value was found to be 100%.
As for `[2H]C([2H])([2H])C([2H])(Oc1ccc2c(C(=O)NCc3ccc(F)c(F)c3)c(C(=C)C)n(Cc3ccccn3)c2c1)C([2H])([2H])[2H]` [Compound 199, N-(3,4-Difluorobenzyl)-2-isopropenyl-6-isopropoxy-1-(pyridin-2-ylmethyl)-1H-indole-3-carboxamide-d7], the IC50 in experiment [1] (setting [3]) worked out at 51 nM. Moreover, the “S1P3 (% inh)” value in experiment [1] (setting [4]) is 100%.
Taken in the same sequence, the figures for `CC(C)c1c(C(=O)NCc2ccc(F)c(F)c2)c2ccc(N3CCOCC3)cc2n1Cc1ccccn1` [Compound 207, N-(3,4-Difluorobenzyl)-2-isopropyl-6-morpholino-1-(pyridin-2-ylmethyl)-1H-indole-3-carboxamide] were 130 nM and 97%.
Taken in the same sequence, the figures for `CC(C)c1c(C(=O)NCc2ccc(F)c(F)c2)c2ccc(OC3CCCC3)cc2n1Cc1ncco1` [Compound 211, 6-(Cyclopentyloxy)-N-(3,4-difluorobenzyl)-2-isopropyl-1-(oxazol-2-ylmethyl)-1H-indole-3-carboxamide] were 10 nM and 100%.
For the molecule `CCCOc1ccc2c(C(=O)NCc3ccc(F)c(F)c3)c(C(C)C)n(Cc3ncco3)c2c1` [Compound 212, N-(3,4-Difluorobenzyl)-2-isopropyl-1-(oxazol-2-ylmethyl)-6-propoxy-1H-indole-3-carboxamide], in experiment [1], the “S1P3 (% inh)” value is recorded as 393 nM (100) % and the concentration for half-maximal inhibition (IC50) was 393 nM.
On to `CC(C)Oc1ccc2c(C(=O)NCc3ccc(F)c(F)c3)c(C(C)C)n(Cc3ncco3)c2c1` [Compound 213, N-(3,4-Difluorobenzyl)-6-isopropoxy-2-isopropyl-1-(oxazol-2-ylmethyl)-1H-indole-3-carboxamide], for which the IC50 in experiment [1] (setting [3]) was 189 nM. In addition, in experiment [1] (setting [4]), the “S1P3 (% inh)” value was 100%.
For the molecule `CC(C)c1c(C(=O)NCc2ccc(F)c(F)c2)c2ccc(Oc3nccs3)cc2n1Cc1ncco1` [Compound 214, N-(3,4-Difluorobenzyl)-2-isopropyl-1-(oxazol-2-ylmethyl)-6-(thiazol-2-yloxy)-1H-indole-3-carboxamide], the IC50 in experiment [1] (setting [3]) worked out at 53 nM. Further, in experiment [1] (setting [4]), the “S1P3 (% inh)” value stood at 100%.
`CC(C)c1c(C(=O)NCc2ccc(F)c(F)c2)c2ccc(Oc3ncc(Br)s3)cc2n1Cc1ncco1` [Compound 215, 6-(5-Bromothiazol-2-yloxy)-N-(3,4-difluorobenzyl)-2-isopropyl-1-(oxazol-2-ylmethyl)-1H-indole-3-carboxamide]: the IC50 in experiment [1] (setting [3]) came out at 23 nM. Further, in experiment [1] (setting [4]), the “S1P3 (% inh)” value was found to be 99%.
On to `Cc1cc(Cn2c(C(C)C)c(C(=O)NCc3ccc(F)c(F)c3)c3ccc(O)cc32)no1` [Compound 218, N-(3,4-Difluorobenzyl)-6-hydroxy-2-isopropyl-1-((5-methylisoxazol-3-yl)methyl)-1H-indole-3-carboxamide], for which, in experiment [1] (setting [3]), the IC50 came to 5400 nM. Besides, the “S1P3 (% inh)” value in experiment [1] (setting [4]) was 67%.
On to `Cc1cc(Cn2c(C(C)C)c(C(=O)NCc3ccc(F)c(F)c3)c3ccc(OC4CCCC4)cc32)no1` [Compound 219, 6-(Cyclopentyloxy)-N-(3,4-difluorobenzyl)-2-isopropyl-1-((5-methylisoxazol-3-yl)methyl)-1H-indole-3-carboxamide], for which, in experiment [1] (setting [3]), the IC50 turned out to be 38 nM. Besides, the “S1P3 (% inh)” value in experiment [1] (setting [4]) is given as 99%.
For the molecule `CCOC(=O)Cn1c(C(C)C)c(C(=O)NCc2ccc(F)c(F)c2)c2ccc(OC3CCCC3)cc21` [Compound 223, Ethyl 2-(6-(Cyclopentyloxy)-3-(3,4-difluorobenzylcarbamoyl)-2-isopropyl-1H-indol-1-yl)acetate], in experiment [1], the “S1P3 (% inh)” value is 24 nM (100) % and the IC50 was 24 nM.
In the case of `COC(=O)c1c(C(=O)NCc2ccc(F)c(F)c2)c2ccc(OC(C)C)cc2n1Cc1ccccn1` [Compound 226, Methyl 3-(3,4-Difluorobenzylcarbamoyl)-6-isopropoxy-1-(pyridin-2-ylmethyl)-1H-indole-2-carboxylate], the IC50 in experiment [1] (setting [3]) worked out at 87 nM. For the same molecule, the “S1P3 (% inh)” value in experiment [1] (setting [4]) is 100%.
For `CCCCCCCCCCCCC/C=C/[C@@H](O)[C@@H](N)COP(=O)(O)O` [Compound S1P, Sphingosine-1-Phosphate], the “decrease of outflow facility” value in experiment [2] is greater than 30%.
Consider `CC(C)c1c(C(=O)NCc2ccc(F)c(F)c2)c2ccc(OC3CCCO3)cc2n1Cc1ccccn1` (stereo not drawn) [drawing 164], for which the IC50 in experiment [1] (setting [3]) was 9 nM. In addition, the “S1P3 (% inh)” value in experiment [1] (setting [4]) came out at 100%.
The matching figures for `CC(C)c1c(C(=O)NCc2ccc(F)c(F)c2)c2ccc(OC3CCCO3)cc2n1Cc1ccccn1` (stereo not drawn) [drawing 169]: 9 nM and 100%.

For orientation: IC50 means the concentration at which inhibition is half-maximal.
